As a reminder, the IC50 is the concentration needed to halve the response being measured.

T1 sequence (A0A0H2ZNH9 201-449): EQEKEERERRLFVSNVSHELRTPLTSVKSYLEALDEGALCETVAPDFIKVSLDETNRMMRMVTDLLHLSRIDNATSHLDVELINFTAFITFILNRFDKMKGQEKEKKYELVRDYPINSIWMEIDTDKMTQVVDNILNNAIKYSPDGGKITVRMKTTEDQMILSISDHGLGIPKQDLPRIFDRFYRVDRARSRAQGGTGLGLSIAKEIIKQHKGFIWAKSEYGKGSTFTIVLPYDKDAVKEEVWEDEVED

This assay concerns the target T1, VicK' (cytoplasmic HisKA and HATPase_c domains of histidine kinase VicK) (Streptococcus pneumoniae, UniProt A0A0H2ZNH9).
T1 construct: gene walK
As to the kind of experiment: Kinase-Glo luminescent assay of residual ATP (ATPase / autophosphorylation). The format is biochemical. To be noted: read-out: IC50 (μM) for VicK' protein. The text has this: Kinase-Glo luminescent assay of residual ATP (ATPase / autophosphorylation) on VicK' (cytoplasmic HisKA and HATPase_c domains of histidine kinase VicK)
Turning to `COc1ccc(-c2ccc(CNCCNC(=O)c3nonc3N)o2)cc1Cl` [compound 2, Compound 2], the IC50 worked out at 562 µM. With `COc1ccc(CCNCc2ccc(-c3ccccc3)o2)cc1OC` [compound 3, Compound 3], the IC50 came out at 503 µM. Take `c1ccc2[nH]c(Nc3ccc(-c4ccc(Nc5nc6ccccc6[nH]5)cc4)cc3)nc2c1` [compound 6, Compound 6]: the IC50 stood at 32.6 µM.

Turning to `Nc1nonc1C(=O)NCCNCc1ccc(OCc2cccs2)cc1` [compound 1, Compound 1], the IC50 came out at 542 µM. `Cn1nnnc1SCCCNCc1ccc(-c2ccccc2F)o1` [compound 4, Compound 4]: the IC50 is greater than 1000 µM. With `Cn1nnnc1SCCCNCc1ccc(-c2ccc(F)c(Cl)c2)o1` [compound 5, Compound 5], the IC50 came out at 598 µM.

The values above are taken from PMC2713251, “Discovery of novel inhibitors of Streptococcus pneumoniae based on the virtual screening with the homology-modeled structure of histidine kinase (VicK)” (BMC Microbiology, 2009).
